Laboratory results taken from patent US11596632B2, “JAK1 pathway inhibitors for the treatment of gastrointestinal disease” (Incyte Corporation, priority 2018, dated 2023).
Like-named read-outs stand apart in the source and are kept apart here.

Test: Plasma pharmacokinetics after single oral sustained release dose
Type: in vivo, human
Procedure: The method used for analyzing Compound 1 in human plasma has been validated. Briefly, 50 μL of human plasma sample is placed in a 96-well plate. After an aliquot of 50 μL of internal standard (dissolved in 50:50 acetonitrile:water) is added, an aliquot of 100 μL of 0.1 M NaHCO3 is added. Then 800 μL of methyl-t-butyl ether (MtBE) is added and the samples are covered and vortexed. After centrifugation, 700 μL of MtBE layer is transferred to a clean 96-well plate. The samples are then dried under nitrogen at approximately 50° C. An aliquot of 250 μL of reconstitution solution (acetonitrile:water, 50:50, v/v) is then added to each sample. The plate is placed in the autosampler tray and injected into an LC-MS/MS for analysis. The LC-MS/MS analysis is carried out with an AB Sciex 4000 or a Sciex 6500 QTRAP mass spectrometer coupled with an HPLC pump and an autosampler. The chromatographic separation is achieved on a Waters T3 (50 mm×2.1 mm) HPLC column, with isocratic elution. The mass spectrometer is operated in positive ESI mode. The multiple reaction monitoring (MRM) transition is m/z 554.1→186.0 for Compound 1 and m/z 558.1→190.0 for the internal standard. Peak-area integrations are performed using the Analyst software and concentrations are calculated in Watson LIMS. Concentrations are calculated using 10 concentration levels ranging from 5 nM to 5000 nM with weighted linear regression, according to the following formula: y=ax+b(weighting factor=1/x^2) • where: x=Compound 1 concentration in nM; y=Peak-area ratio; a=Slope; and b=Intercept.
The lower limit of quantitation is 5 nM and the calibration curve ranges from 5 nM to 5000 nM for Compound 1 in human plasma.
Methods: Compound 1 concentrations in plasma and feces (colonic surrogate) were determined following a single sustained release 25 mg oral dose (see, e.g., Example B, 25 mg SR composition). Compound 1 concentrations in plasma following a single 100 mg dose were also determined in a separate study (see, e.g., Example C for measuring concentrations of Compound 1 in plasma). Ex vivo study: Colon tissue samples from healthy and UC subjects (2/group) were mounted on a vertical Ussing diffusion chamber. [^14C]Compound 1 was applied to the apical side of the chamber at 100 and 1000 nM and incubated for 1 h. Samples were collected from the donor and receiver sides for determination of Compound 1 concentration. The colonic tissue was snap frozen for quantitative autoradiography.
Standard noncompartmental pharmacokinetic methods were used to analyze Compound 1 plasma concentrations. The Cmax (maximum plasma concentration) and Tmax (time at which the maximum plasma concentration occurs) were taken directly from the observed plasma concentration data. The terminal-phase disposition rate constant (λZ) was estimated using a log-linear regression of the concentration data in the terminal disposition phase, and t1/2 was estimated as ln(2)/λZ. AUCall is defined as the area under the plasma concentration-time curve from time 0 to the last observation calculated using the linear trapezoidal rule for increasing concentrations and logarithmic trapezoidal rule for decreasing concentrations. AUC0-inf was calculated as AUC0-t+Ct/λZ, where by AUC0-t is defined as the area under the plasma concentration-time curve from time 0 to the last measureable concentration (also calculated using the linear-up/log-down trapezoidal rule) and Ct is the last measurable concentration. Cl/F is the apparent clearance and is calculated as Dose/AUC0-inf. Vz/F is the apparent volume of distribution based on the terminal phase calculated as Dose/(λZ*AUC0-inf).

[1] = single 25 mg SR oral dose, N=12

With `N#CCC1(n2cc(-c3ncnc4[nH]ccc34)cn2)CN(C2CCN(C(=O)c3ccnc(C(F)(F)F)c3F)CC2)C1` [Compound 1, {1-{1-[3-Fluoro-2-(trifluoromethyl)isonicotinoyl]piperidin-4-yl}-3-[4-(7H-pyrrolo[2,3-d]pyrimidin-4-yl)-1H-pyrazol-1-yl]azetidin-3-yl}acetonitrile] the Cmax (human, plasma, 100 mg, plasma, single 100 mg dose, separate study, read-out: Cmax, mean (SD)) was 84.4 nM, the AUC(0-inf) (human, plasma, po, 25 mg, plasma, single 25 mg SR oral dose, N=12, read-out: AUC0-inf, Geometric Mean) was 0.111 µM·h and the AUC(0-inf) (human, plasma, po, 25 mg, plasma, single 25 mg SR oral dose, N=12, read-out: AUC0-inf, Mean) was 0.117 µM·h. For the same compound, the AUC (human, plasma, po, 25 mg, plasma, single 25 mg SR oral dose, N=12, read-out: AUCall, Geometric Mean) was 0.105 µM·h, the AUC (human, plasma, po, 25 mg, plasma, single 25 mg SR oral dose, N=12, read-out: AUCall, Mean) was 0.11 µM·h and the Cmax (human, plasma, po, 25 mg, plasma, single 25 mg SR oral dose, N=12, read-out: Cmax, Geometric Mean) was 17.2 nM. It also gave a Cmax (human, plasma, po, 25 mg, plasma, single 25 mg SR oral dose, N=12, read-out: Cmax, Mean) of 18.9 nM, a half-life (human, plasma, po, 25 mg, single 25 mg SR oral dose, N=12, read-out: Half-life or t1/2, Geometric Mean (converted)) of 9.04 h and a half-life (human, plasma, po, 25 mg, single 25 mg SR oral dose, N=12, read-out: Half-life or t1/2, Mean (converted)) of 12.3 h. The Vd/F (human, plasma, po, 25 mg, single 25 mg SR oral dose, N=12, read-out: Vz/F, Geometric Mean) was 5290 L, the Vd/F (human, plasma, po, 25 mg, single 25 mg SR oral dose, N=12, read-out: Vz/F, Mean) was 7360 L and the Tmax (human, plasma, single 25 mg SR oral dose, N=12 (min 1, max 4), read-out: Tmax, median) was 2 h. The “dose proportionality of PK” value (humans) was “supralinear PK with regard to dose”, the “oral bioavailability in humans” value (in vivo, po) was “moderate” and the “Cl/F, Geometric Mean” value [1] was 405 L/h. For the same compound, the “Cl/F, Mean” value [1] was 424 L/h.
